Assay results from US20060008378A1, “Sterilization method” (priority 2004, published 2006).

Test system: bacillus used as an index (biological-indicator)
Details: 15 g of 35% hydrogen peroxide solution vaporized in 3 minutes, about 0.8 m^3 isolator, peak about 1300 ppm, closed state until 1200 seconds
Procedure: In this Example, the above-mentioned injector 14 is controlled so that hydrogen peroxide solution is continuously dropped for 3 minutes at a flow rate of 5 g/min, and the dropped hydrogen peroxide solution changes to hydrogen peroxide vapor by flash evaporation in an evaporator 12 in an instant.

`OO` [hydrogen peroxide vapor, hydrogen peroxide] was tested, and the “effect of sterilization (culturing the biological-indicator after sterilization)” value was “multiplication of the bacillus used as an index is not recognized”.
